In ChEMBL document CHEMBL3864139, “Phenylindenone isomers as divergent modulators of p38α MAP kinase” (Bioorg Med Chem Lett, 2016):
The source made the active and inactive calls. The calls are words filed in the database; no cut-off is given here.

What was measured:
[1] = molecular target: T1, Mitogen-activated protein kinase 14 (Homo sapiens, UniProt Q16539); test: Activation of human recombinant full length GST-tagged MAPK14 expressed in Escherichia coli assessed as increase in MAPK14 phosphorylation at 10 to 10000 nM in presence of 500 uM of ATP by direct Z-LITE assay
T1 sequence (Q16539 whole entry): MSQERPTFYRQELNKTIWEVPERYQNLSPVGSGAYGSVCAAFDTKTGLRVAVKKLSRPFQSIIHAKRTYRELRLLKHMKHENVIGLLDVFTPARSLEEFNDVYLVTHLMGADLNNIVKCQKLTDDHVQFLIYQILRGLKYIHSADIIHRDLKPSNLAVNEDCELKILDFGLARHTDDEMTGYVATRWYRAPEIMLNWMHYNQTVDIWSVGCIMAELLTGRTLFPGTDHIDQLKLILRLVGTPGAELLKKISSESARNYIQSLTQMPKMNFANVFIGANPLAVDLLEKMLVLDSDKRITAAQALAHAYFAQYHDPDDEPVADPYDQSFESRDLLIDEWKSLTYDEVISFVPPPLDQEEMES

[2] = molecular target: T1, Mitogen-activated protein kinase 14; test: Activation of human recombinant full length GST-tagged MAPK14 expressed in Escherichia coli assessed as increase in MAPK14 phosphorylation at 10 uM in presence of 500 uM of ATP by direct Z-LITE assay relative to control
[3] = molecular target: T1, Mitogen-activated protein kinase 14; test: Inhibition of human recombinant full length GST-tagged MAPK14 phosphorylation expressed in Escherichia coli in presence of 100 uM of ATP by direct Z-LITE assay
[4] = molecular target: T1, Mitogen-activated protein kinase 14; test: Inhibition of human recombinant full length GST-tagged MAPK14 phosphorylation expressed in Escherichia coli in presence of 500 uM of ATP by direct Z-LITE assay

Activity [1]	Activity [2]	IC50 [3]	IC50 [4]	SMILES
Active	40 to 50%			O=C1C(c2ccncc2)=C(c2ccc(F)cc2)c2ccccc21
		0.899 µM	1.35 µM	O=C1C(c2ccc(F)cc2)=C(c2ccncc2)c2ccccc21
